Results published in patent publication US8269014B2, “Thiophene analogues for the treatment or prevention of flavivirus infections” (Vertex Pharmaceuticals (Canada) Incorporated, priority 2006, dated 2012).

Columns and labels:
[1] = tested on: HCV replicon cells (Huh-7 ET cells); assay type: cell-based, human; details: Ratio of CC50/IC50 in HCV replicon cells (Huh-7 ET cells); average TI when tested more than once
[2] = Stability in human and rat microsomes; assay type: in vitro ADME; details: human and rat hepatic microsomes; relative to compound E / other thiophene analogues
Description: Incubations containing no NADPH and no UDPGA are used as controls. The compounds are incubated at 50 uM for 0 and 60 minutes. The reaction is stopped by the addition of an equal volume of acetonitrile. The mixture is centrifuged and the supernatant is analyzed by HPLC/UV or MS/MS. The percentage parent remaining corresponds to the area of the parent compound in the 60-minute incubation versus the area of the parent compound in a 0-minute incubation ×100.

[3] = tested on: CYP3A4; test: Induction in cultured human hepatocytes (CYP3A4 activity and mRNA); assay type: in vitro ADME; details: relative to compound E / other thiophene analogues

SMILES | TI [1] | microsome stability profile [2] | induction profile in human hepatocytes [3]
CC1CCC(C(=O)N(c2cc(-c3ccccc3)sc2C(=O)O)C(C)C)CC1 (stereo not shown) [A, reference compound] | ++ (++: 100-1000) | – | –
CC1CCC(C(=O)N(c2cc(-c3ccccc3)sc2C(=O)O)C2CCC(O)CC2)CC1 (stereo not shown) [B, reference compound] | ++ (++: 100-1000) | – | –
COC1CCC(N(C(=O)C2CCC(C)CC2)c2cc(-c3ccccc3)sc2C(=O)O)CC1 (stereo not shown) [C, reference compound] | + (+: <100) | – | –
CC(C)(C)C#Cc1cc(N(C(=O)[C@H]2CC[C@H](C)CC2)[C@H]2CC[C@H](O)CC2)c(C(=O)O)s1 [Compound 1, 5-(3,3-DIMETHYL-BUT-1-YNYL)-3-[(TRANS-4-HYDROXY-CYCLOHEXYL)-(TRANS-4-METHYL-CYCLOHEXANECARBONYL)-AMINO]-THIOPHENE-2-CARBOXYLIC ACID] | ++++++ (++++++: >6000) | better | better
CO[C@H]1CC[C@H](N(c2cc(C#CC(C)(C)C)sc2C(=O)O)C(=O)[C@H]2CC[C@H](C)CC2)CC1 [Compound 2, 5-(3,3-DIMETHYL-BUT-1-YNYL)-3-[(TRANS-4-METHOXY-CYCLOHEXYL)-(TRANS-4-METHYL-CYCLOHEXANECARBONYL)-AMINO]-THIOPHENE-2-CARBOXYLIC ACID] | +++ (+++: 1000-2000) | better | better
CC(C)(C)C#Cc1cc(N(C(=O)[C@H]2CC[C@H](C)CC2)[C@H]2CC[C@@H](n3cncn3)CC2)c(C(=O)O)s1 [Compound 3, 5-(3,3-DIMETHYL-BUT-1-YNYL)-3-[(TRANS-4-METHYL-CYCLOHEXANECARBONYL)-(CIS-4-[1,2,4]TRIAZOL-1-YL-CYCLOHEXYL)-AMINO]-THIOPHENE-2-CARBOXYLIC ACID] | ++++++ (++++++: >6000) | – | –
CC(C)(C)C#Cc1cc(N(C(=O)[C@H]2CC[C@H](C)CC2)[C@H]2CC[C@H](n3cncn3)CC2)c(C(=O)O)s1 [Compound 4, 5-(3,3-DIMETHYL-BUT-1-YNYL)-3-[(TRANS-4-METHYL-CYCLOHEXANECARBONYL)-(TRANS-4-[1,2,4]TRIAZOL-1-YL-CYCLOHEXYL)-AMINO]-THIOPHENE-2-CARBOXYLIC ACID] | ++++ (++++: 2000-4000) | – | –
CC(C)(C)C#Cc1cc(N(C(=O)[C@H]2CC[C@H](C)CC2)[C@H]2CC[C@@H](O)CC2)c(C(=O)O)s1 [Compound 5, 5-(3,3-DIMETHYL-BUT-1-YNYL)-3-[(CIS-4-HYDROXY-CYCLOHEXYL)-(TRANS-4-METHYL-CYCLOHEXANECARBONYL)-AMINO]-THIOPHENE-2-CARBOXYLIC ACID] | ++++++ (++++++: >6000) | – | –
CC1CCC(C(=O)N(c2cc(C#CC(C)(C)C)sc2C(=O)O)C2CCC(n3ccnn3)CC2)CC1 (stereo not drawn) [Compound 7, 5-(3,3-DIMETHYL-BUT-1-YNYL)-3-[(TRANS-4-METHYL-CYCLOHEXANECARBONYL)-(4-CIS-[1,2,3]TRIAZOL-1-YL-CYCLOHEXYL)-AMINO]-THIOPHENE-2-CARBOXYLIC ACID] | +++++ (+++++: 4000-6000) | – | –
CC(C)(C)C#Cc1cc(N(C(=O)[C@H]2CC[C@H](C)CC2)[C@H]2CC[C@H](n3ccnn3)CC2)c(C(=O)O)s1 [Compound 8, 5-(3,3-DIMETHYL-BUT-1-YNYL)-3-[(TRANS-4-METHYL-CYCLOHEXANECARBONYL)-(TRANS-4-[1,2,3]TRIAZOL-1-YL-CYCLOHEXYL)-AMINO]-THIOPHENE-2-CARBOXYLIC ACID] | ++++++ (++++++: >6000) | – | –
CC(C)(C)C#Cc1cc(N(C(=O)[C@H]2CC[C@H](C)CC2)[C@H]2CC[C@H](F)CC2)c(C(=O)O)s1 [Compound 9, 5-(3,3-DIMETHYL-BUT-1-YNYL)-3-[(TRANS-4-FLUORO-CYCLOHEXYL)-(TRANS-4-METHYL-CYCLOHEXANECARBONYL)-AMINO]-THIOPHENE-2-CARBOXYLIC ACID] | ++++++ (++++++: >6000) | – | –
CC1CCC(C(=O)N(c2cc(C#CC(C)(C)C)sc2C(=O)O)C(C)C)CC1 (stereo not shown) [E, reference compound] | +++ (+++: 1000-2000) | – | –
CC1CCC(C(=O)N(c2cc(-c3ccccc3)sc2C(=O)O)C2CCC(n3ccnn3)CC2)CC1 (stereo not shown) [F, reference compound] | ++ (++: 100-1000) | – | –
CC1CCC(C(=O)N(c2cc(-c3ccccc3)sc2C(=O)O)C2CCC(n3cncn3)CC2)CC1 (stereo not shown) [G, reference compound] | +++ (+++: 1000-2000) | – | –
CC1CCC(C(=O)N(c2cc(-c3ccccc3)sc2C(=O)O)C2CCC(F)CC2)CC1 (stereo not shown) [H, reference compound] | + (+: <100) | – | –
